Values joined by “and” are separate entries in the source; they are usually repeats but may differ in a detail not shown here. Identical values can stand only once. Marks after values point to notes of the source that are not given here.
What was measured:
in vitro [1] = conditions: human
in vitro [2] = conditions: human; remark: listed apart in the source
[3] = Microsomal binding (fu,mic) using HLM-beads; conditions: for fu,mic: HLM-beads, compound 1.0 μM, (SD)
[4] = Microsomal binding (fu,mic) using rapid equilibrium dialysis (RED); conditions: compound 1.0 μM, (SD)
UGT1A1 [5] = target: T1, UGT1A1 (Homo sapiens, UniProt P22309); assay: in vitro; conditions: pH 7.8
T1 sequence (P22309 26-533): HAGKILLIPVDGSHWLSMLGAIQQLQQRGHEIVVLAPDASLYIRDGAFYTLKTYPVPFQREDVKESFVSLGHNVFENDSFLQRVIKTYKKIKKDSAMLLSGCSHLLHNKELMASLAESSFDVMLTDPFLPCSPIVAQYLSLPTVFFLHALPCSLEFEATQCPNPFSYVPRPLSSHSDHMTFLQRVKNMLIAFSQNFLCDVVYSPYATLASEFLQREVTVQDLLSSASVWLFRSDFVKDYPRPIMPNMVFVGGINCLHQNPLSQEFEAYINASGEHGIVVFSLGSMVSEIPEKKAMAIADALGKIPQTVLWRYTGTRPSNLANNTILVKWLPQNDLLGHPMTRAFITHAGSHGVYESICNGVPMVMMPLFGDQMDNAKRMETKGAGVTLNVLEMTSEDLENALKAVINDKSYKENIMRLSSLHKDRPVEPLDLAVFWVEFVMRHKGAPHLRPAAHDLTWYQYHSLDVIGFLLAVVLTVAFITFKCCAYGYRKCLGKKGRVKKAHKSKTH

UGT1A1 [6] = target: T1, UGT1A1; assay: UGT1A1-catalyzed E2 3-glucuronidation kinetics in HLM suspensions vs HLM-beads
CYP2C8 = target: T2, CYP2C8 (Homo sapiens, UniProt P10632)
T2 sequence (P10632 1-490): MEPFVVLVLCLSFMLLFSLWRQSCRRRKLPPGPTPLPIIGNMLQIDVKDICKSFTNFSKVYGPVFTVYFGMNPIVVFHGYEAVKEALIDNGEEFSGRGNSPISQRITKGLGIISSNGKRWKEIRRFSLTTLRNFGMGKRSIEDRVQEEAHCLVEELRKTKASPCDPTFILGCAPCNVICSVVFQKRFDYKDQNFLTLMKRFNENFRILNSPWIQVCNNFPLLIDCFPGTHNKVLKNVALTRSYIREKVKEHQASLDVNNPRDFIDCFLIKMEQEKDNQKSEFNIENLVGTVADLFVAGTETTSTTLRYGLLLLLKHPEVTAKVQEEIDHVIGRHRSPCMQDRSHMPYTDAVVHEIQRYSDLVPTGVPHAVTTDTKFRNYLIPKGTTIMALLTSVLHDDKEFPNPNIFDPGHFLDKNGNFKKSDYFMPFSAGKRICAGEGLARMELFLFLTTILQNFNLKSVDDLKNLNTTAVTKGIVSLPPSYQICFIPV

[7] = Non-specific binding of compounds to magnetizable beads alone; conditions: 30 min incubation of beads (5.3×10^9 beads), bioanalysis of supernatant
[8] = cited from earlier work
UGT2B7 = target: T3, UGT2B7 (Homo sapiens, UniProt P16662); assay: in vitro; conditions: for microsomal CLint: pH 7.8; for Km: pH 7.8, Km, Michaelis-Menten modeling
T3 sequence (P16662 24-529): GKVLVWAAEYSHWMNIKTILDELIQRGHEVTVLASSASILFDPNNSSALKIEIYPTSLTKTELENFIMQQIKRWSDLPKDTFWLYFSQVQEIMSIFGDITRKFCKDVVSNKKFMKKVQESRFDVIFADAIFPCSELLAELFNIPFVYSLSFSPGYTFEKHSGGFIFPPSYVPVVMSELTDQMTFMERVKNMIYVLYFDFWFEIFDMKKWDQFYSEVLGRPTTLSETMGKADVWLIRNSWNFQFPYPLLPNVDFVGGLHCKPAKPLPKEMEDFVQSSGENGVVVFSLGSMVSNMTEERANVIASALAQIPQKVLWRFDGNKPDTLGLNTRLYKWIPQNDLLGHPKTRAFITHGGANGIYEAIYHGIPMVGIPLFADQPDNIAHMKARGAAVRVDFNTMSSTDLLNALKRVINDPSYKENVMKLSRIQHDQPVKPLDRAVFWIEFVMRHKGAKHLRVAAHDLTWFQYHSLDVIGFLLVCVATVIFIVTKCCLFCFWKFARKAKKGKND

not read [9] = substrate: CCN(CC)Cc1cc(Nc2ccnc3cc(Cl)ccc23)ccc1O; assay: not read; conditions: other: HLM suspensions; substrate inhibition modeling; pH 7.4
[10] = substrate: CC(C)c1cccc(C(C)C)c1O
not read [11] = substrate: C[C@]12CC[C@@H]3c4ccc(O)cc4CC[C@H]3[C@@H]1CC[C@@H]2O; assay: not read; conditions: other: HLM suspensions; allosteric sigmoidal modeling; pH 7.8; 37.0 °C
[12] = human liver microsomes bound to magnetic beads (HLM-beads)
[13] = human liver microsomes (suspension)

## CCC(C)n1ncn(-c2ccc(N3CCN(c4ccc(OCC5COC(Cn6cncn6)(c6ccc(Cl)cc6Cl)O5)cc4)CC3)cc2)c1=O (centres unmarked) [Itraconazole, itraconazole]
In vitro [1]; [12]
  fraction unbound at 5 min, 1 μM: 0.073
In vitro [2]
  fraction unbound at 6 h, 1 μM: 0.025
[3]; HLM 0.50 mg/ml
  fu,mic ratio HLM-beads/RED: 2.8
  fu,mic: 0.10 (0.01)
[3]; HLM 1.0 mg/ml
  fu,mic ratio HLM-beads/RED: 2.9
[3]; HLM […]
  fu,mic ratio HLM-beads/RED: 0.84
  fu,mic: 0.24 (0.04)
[4]; pre-soak method, HLM 0.50 mg/ml
  fu,mic: 0.036 (0.005)^b
[4]; pre-soak method, HLM […]
  fu,mic: 0.29 (0.07)^b

## C[C@]12CC[C@@H]3c4ccc(O)cc4CC[C@H]3[C@@H]1CC[C@@H]2O [E2, estradiol]
UGT1A1 [5]; [13]
  microsomal CLint: 59 µL/min/mg
UGT1A1 [5]
  microsomal CLint: 88 µL/min/mg
UGT1A1 [6]
  V/K or CLint, fold higher in HLM-beads than in HLM suspensions: higher
  Vmax, HLM-beads compared with HLM suspensions: comparable

## CCN(CC)Cc1cc(Nc2ccnc3cc(Cl)ccc23)ccc1O [Amodiaquine, amodiaquine]
CYP2C8
  Km, times higher with HLM-beads than with HLM suspensions: approximately 2 ×

## Cc1nnc2n1-c1ccc(Cl)cc1C(c1ccccc1)=NC2 [Alprazolam]
In vitro [1]; microsomes
  fraction unbound at 5 min, 1 μM: 0.81
In vitro [2]; microsomes
  fraction unbound at 6 h, 1 μM: 0.98
[3]; HLM 0.50 mg/ml
  fu,mic ratio HLM-beads/RED: 0.77
  fu,mic: 0.78 (0.06)
[3]; HLM 1.0 mg/ml
  fu,mic ratio HLM-beads/RED: 0.66
  fu,mic: 0.68 (0.07)
[3]; HLM […]
  fu,mic ratio HLM-beads/RED: 0.82
[4]; HLM 0.50 mg/ml
  fu,mic: 1.0 (0.1)
[4]; HLM 1.0 mg/ml
  fu,mic: 1.0 (0.1)

## CN(C)CCCN1c2ccccc2CCc2ccccc21 [Imipramine, imipramine]
In vitro [2]; microsomes
  fraction unbound at 6 h, 1 μM: 0.4

## CN(C)CCCN1c2ccccc2Sc2ccc(Cl)cc21 [Chlorpromazine, chlorpromazine]
[3]; HLM 0.50 mg/ml
  fu,mic: 0.11 (0.02)
[3]; HLM […]
  fu,mic: 0.79 (0.13)

## O=C(O)Cc1ccccc1Nc1c(Cl)cccc1Cl [Diclofenac, diclofenac]
In vitro [1]
  fraction unbound at 5 min, 1 μM: 0.94
In vitro [1]; [12]
  fraction unbound at 5 min, 1 μM: 0.87
In vitro [2]; microsomes
  fraction unbound at 6 h, 1 μM: 0.98
[3]; HLM 0.50 mg/ml
  fu,mic: 0.92 (0.03)^a

## OCc1ncc2n1-c1ccc(Cl)cc1C(c1ccccc1F)=NC2 [1′OH midazolam, 1′hydroxymidazolam]
[7]
  non-specific binding to the beads: not observed

## CCCCNC(=O)NS(=O)(=O)c1ccc(C)cc1 [Tolbutamide, tolbutamide]
[8]
  pKa: 5.2

## Cc1cn([C@H]2C[C@H](N=[N+]=[N-])[C@@H](CO)O2)c(=O)[nH]c1=O [AZT, zidovudine]
UGT2B7; [13]
  microsomal CLint: 0.44 µL/min/mg
UGT2B7
  microsomal CLint: 2.8 µL/min/mg
UGT2B7; HLM suspensions
  Km: 1400 ± 0.1 µM
UGT2B7; HLM-beads
  Km: 490 ± 0.06 µM

## COc1ccc([C@@H]2Sc3ccccc3N(CCN(C)C)C(=O)[C@@H]2OC(C)=O)cc1 [Diltiazem, diltiazem]
In vitro [1]
  fraction unbound at 5 min, 1 μM: 0.99
In vitro [1]; [12]
  fraction unbound at 5 min, 1 μM: 0.97
In vitro [2]; microsomes
  fraction unbound at 6 h, 1 μM: 0.96
[8]
  pKa: 9.4
[3]; HLM 0.50 mg/ml
  fu,mic ratio HLM-beads/RED: 1.5
[3]; HLM 1.0 mg/ml
  fu,mic ratio HLM-beads/RED: 1.3
[3]; HLM […]
  fu,mic ratio HLM-beads/RED: 1.0

B1: CYP2C8 (Homo sapiens) (protein)
chain: T2 sequence (P10632 1-490)
Not read [9]
  Km: 0.732 ± 0.11 µM
  Vmax/Km: 1340 µL/min/mg

B2: UGT1A9 (Homo sapiens) (protein)
chain: GKLLVVPMDGSHWFTMRSVVEKLILRGHEVVVVMPEVSWQLGRSLNCTVKTYSTSYTLEDLDREFKAFAHAQWKAQVRSIYSLLMGSYNDIFDLFFSNCRSLFKDKKLVEYLKESSFDAVFLDPFDNCGLIVAKYFSLPSVVFARGILCHYLEEGAQCPAPLSYVPRILLGFSDAMTFKERVRNHIMHLEEHLLCHRFFKNALEIASEILQTPVTEYDLYSHTSIWLLRTDFVLDYPKPVMPNMIFIGGINCHQGKPLPMEFEAYINASGEHGIVVFSLGSMVSEIPEKKAMAIADALGKIPQTVLWRYTGTRPSNLANNTILVKWLPQNDLLGHPMTRAFITHAGSHGVYESICNGVPMVMMPLFGDQMDNAKRMETKGAGVTLNVLEMTSEDLENALKAVINDKSYKENIMRLSSLHKDRPVEPLDLAVFWVEFVMRHKGAPHLRPAAHDLTWYQYHSLDVIGFLLAVVLTVAFITFKCCAYGYRKCLGKKGRVKKAHKSKTH
[10]
  K0.5: 30 ± 4 μM and 13 ± 2^sig μM

B3: UGT1A1 (Homo sapiens) (protein)
chain: T1 sequence (P22309 26-533)
Not read [11]
  K0.5: 13 ± 1 µM

From patent publication US20210223237A1, “COMPOSITIONS AND METHODS FOR STUDYING DRUG METABOLISM” (Boehringer Ingelheim International GmbH, priority 2020, published 2021)
